Measured values from ChEMBL document CHEMBL3272295, “Drugs derived from cannabinoids. 5. delta6a,10a-Tetrahydrocannabinol and heterocyclic analogs containing aromatic side chains” (J Med Chem, 1976).
The source made the active and inactive calls. The rule behind the calls is not given here.

Tests used:
Mus musculus [1] = assay: Analgesic activity in po dosed mouse assessed as inhibition of acetic acid-induced writhing administered 30 mins prior to acetic acid challenge measured after 5 mins for 20 mins; type: functional
Rattus norvegicus [2] = assay: Analgesic activity in po dosed Sprague-Dawley rat after 15 to 90 mins by tail flick test; type: functional
Rattus norvegicus [3] = species on record: Rattus norvegicus; assay: animal or person; type: functional; details: Charles River, route oral
Description: Antidiarrheal activity in Charles River rat assessed as inhibition of castor oil-induced diarrhea by measuring protected animals at 0.5 mg/kg, po administered 1 hr prior to castor oil challenge measured after 1 hr relative to vehicle-treated control

Rattus norvegicus [4] = assay: Antipsychotic activity in rat assessed as reduction of methamphetamine-induced hyperactivity at 5 mg/kg, po administered prior to methamphetamine challenge relative to vehicle-treated control; type: functional; parameters: scale not given: the % may be the effect or the level left
[5] = Acute toxicity in po dosed mouse; type: organism-based; details: in vivo
Mus musculus [6] = assay: Analgesic activity in mouse assessed as inhibition of acetic acid-induced writhing at 10 mg/kg, po administered 30 mins prior to acetic acid challenge measured after 5 mins for 20 mins; type: functional
Rattus norvegicus [7] = assay: Antianxiety activity in Long-Evans rat assessed as reduction in motor activity at 5 mg/kg, po after 2 hrs relative to vehicle-treated control; type: functional; parameters: scale not given: the % may be the effect or the level left
Mus musculus [8] = assay: Antianxiety activity in albino BALB/cJ mouse assessed as reduction in footshock-induced fighting behavior at 5 mg/kg, po after 30 to 90 mins; type: functional; parameters: scale not given: the % may be the effect or the level left
Felis catus [9] = assay: Hypnotic activity in cat assessed as increase in non-REM sleep time at 0.5 mg/kg administered orally through diet measured for 12 hrs by EEG analysis; type: functional; details: route oral
Mus musculus [10] = assay: Antianxiety activity in albino BALB/cJ mouse assessed as reduction in footshock-induced fighting behavior at 10 mg/kg, po after 30 to 90 mins; type: functional; parameters: scale not given: the % may be the effect or the level left
Rattus norvegicus [11] = assay: Antipsychotic activity in rat assessed as reduction of methamphetamine-induced hyperactivity at 2 mg/kg, po administered prior to methamphetamine challenge relative to vehicle-treated control; type: functional; parameters: scale not given: the % may be the effect or the level left
Felis catus [12] = assay: Hypnotic activity in cat assessed as increase in total sleep time at 0.5 mg/kg administered orally through diet measured for 12 hrs by EEG analysis; type: functional; details: route oral
Rattus norvegicus [13] = assay: Antianxiety activity in Long-Evans rat assessed as reduction in motor activity at 10 mg/kg, po after 2 hrs relative to vehicle-treated control; type: functional; parameters: scale not given: the % may be the effect or the level left
Rattus norvegicus [14] = assay: Antihypertensive activity in spontaneously hypertensive rat model assessed as reduction in blood pressure at 1 mg/kg, po after 24 hrs; type: functional; parameters: scale not given: the % may be the effect or the level left
Rattus norvegicus [15] = assay: Antihypertensive activity in spontaneously hypertensive rat model assessed as reduction in blood pressure at 3 mg/kg, po after 3 hrs; type: functional; parameters: scale not given: the % may be the effect or the level left
Rattus norvegicus [16] = assay: Antipsychotic activity in rat assessed as reduction of methamphetamine-induced hyperactivity at 20 mg/kg, po administered prior to methamphetamine challenge relative to vehicle-treated control; type: functional; parameters: scale not given: the % may be the effect or the level left
Rattus norvegicus [17] = assay: Antihypertensive activity in spontaneously hypertensive rat model assessed as reduction in blood pressure at 1 mg/kg, po after 3 hrs; type: functional; parameters: scale not given: the % may be the effect or the level left
Rattus norvegicus [18] = assay: Antihypertensive activity in spontaneously hypertensive rat model assessed as reduction in blood pressure at 3 mg/kg, po after 24 hrs; type: functional; parameters: scale not given: the % may be the effect or the level left
Rattus norvegicus [19] = assay: Antipsychotic activity in rat assessed as reduction of methamphetamine-induced hyperactivity at 10 mg/kg, po administered prior to methamphetamine challenge relative to vehicle-treated control; type: functional; parameters: scale not given: the % may be the effect or the level left

## CC1CCc2c(c3c(O)cc(C(C)C(C)CCCc4ccc(F)cc4)cc3oc2=O)C1 (stereo not drawn)
Mus musculus [1]
  inhibition: inactive
Rattus norvegicus [2]
  Activity: inactive

## C#CCN1CCC2=C(C1)c1c(O)cc(C(C)C(C)CCCc3ccc(F)cc3)cc1OC2(C)C (stereo not drawn)
Rattus norvegicus [3]
  inhibition in vivo at 0.5 mg/kg: 0%
Rattus norvegicus [4]
  Activity: 0%
[5]
  LD50: ≥ 1000 mg/kg
Mus musculus [6]
  inhibition in vivo at 10 mg/kg: 35%
Rattus norvegicus [7]
  Activity: 46%
Mus musculus [8]
  Activity: 23%

## CC1CSC2=C1c1c(O)cc(C(C)CCCc3ccc(F)cc3)cc1OC2(C)C (stereo not drawn)
Mus musculus [1]
  ED50: 8.4 mg/kg
Felis catus [9]
  Time: 8 min
Rattus norvegicus [4]
  Activity: 78%
[5]
  LD50: 500 mg/kg
Mus musculus [10]
  Activity: 100%
Rattus norvegicus [11]
  Activity: 55%
Rattus norvegicus [7]
  Activity: 85%
Felis catus [12]
  Time: 11 min

## CC(CCCc1ccc(F)cc1)c1cc(O)c2c3c(c(=O)oc2c1)CCC3 (stereo not drawn)
Mus musculus [1]
  inhibition: inactive
Rattus norvegicus [2]
  Activity: inactive

## CC(CCc1ccc(F)cc1)C(C)c1cc(O)c2c3c(c(=O)oc2c1)CCN(Cc1ccccc1)C3 (stereo not drawn)
Mus musculus [1]
  inhibition: inactive
Rattus norvegicus [2]
  Activity: inactive

## CC(CCc1ccc(F)cc1)c1cc(O)c2c(c1)OC(C)(C)C1=C2CNCC1 (stereo not drawn)
Mus musculus [1]
  inhibition: inactive
Rattus norvegicus [2]
  Activity: inactive

## CC(CCCc1ccc(F)cc1)C(C)c1cc(O)c2c(c1)OC(C)(C)C1=C2CNCC1 (stereo not drawn)
Mus musculus [1]
  inhibition: inactive
Rattus norvegicus [2]
  Activity: inactive

## CC(CCCc1ccc(F)cc1)c1cc(O)c2c3c(c(=O)oc2c1)SCC3C (stereo not drawn)
Mus musculus [1]
  inhibition: inactive
Rattus norvegicus [2]
  Activity: inactive

## C#CCN1CCC2=C(C1)c1c(OC(=O)C(C)CCN3CCOCC3)cc(C(C)CCCc3ccc(F)cc3)cc1OC2(C)C.Cl (stereo not drawn)
Mus musculus [1]
  ED50: 7.2 mg/kg
Rattus norvegicus [2]
  ED50: 7 mg/kg
Rattus norvegicus [4]
  Activity: 24%
[5]
  LD50: ≥ 1000 mg/kg
Mus musculus [10]
  Activity: 26%
Rattus norvegicus [7]
  Activity: 71%

## CC1CCc2c(c3c(O)cc(C(C)C(C)Cc4ccc(F)cc4)cc3oc2=O)C1 (stereo not drawn)
Mus musculus [1]
  inhibition: inactive
Rattus norvegicus [2]
  Activity: inactive

## CCCCCc1cc(O)c2c3c(c(=O)oc2c1)CCN(Cc1ccccc1)C3
Mus musculus [1]
  inhibition: inactive
Rattus norvegicus [2]
  Activity: inactive

## CC1CCc2c(c3c(O)cc(C(C)CCCc4ccc(F)cc4)cc3oc2=O)C1 (stereo not drawn)
Mus musculus [1]
  inhibition: inactive
Rattus norvegicus [2]
  Activity: inactive

## CNC1=Nc2ccc(Cl)cc2C(c2ccccc2)=[N+]([O-])C1.Cl [CHLORDIAZEPOXIDE HYDROCHLORIDE]
Rattus norvegicus [13]
  Activity: 54%
Mus musculus [10]
  Activity: 53%
Rattus norvegicus [7]
  Activity: 26%

## CC(CCc1ccc(F)cc1)c1cc(O)c2c3c(c(=O)oc2c1)CCN(Cc1ccccc1)C3 (stereo not drawn)
Mus musculus [1]
  inhibition: inactive
Rattus norvegicus [2]
  Activity: inactive

## CC(CCCc1ccc(F)cc1)c1cc(O)c2c(c1)OC(C)(C)C1=C2CNCC1 (stereo not drawn)
Mus musculus [1]
  inhibition: inactive
Rattus norvegicus [2]
  Activity: inactive

## CC(CCc1ccc(F)cc1)C(C)c1cc(O)c2c(c1)OC(C)(C)C1=C2CN(Cc2ccccc2)CC1 (stereo not drawn)
Mus musculus [1]
  inhibition: inactive
Rattus norvegicus [2]
  Activity: inactive

## CC(CCc1ccc(F)cc1)C(C)c1cc(O)c2c(c1)OC(C)(C)C1=C2CNCC1 (stereo not drawn)
Mus musculus [1]
  inhibition: inactive
Rattus norvegicus [2]
  Activity: inactive

## CC(CCCc1ccc(F)cc1)C(C)c1cc(O)c2c3c(c(=O)oc2c1)CCN(Cc1ccccc1)C3 (stereo not drawn)
Mus musculus [1]
  inhibition: inactive
Rattus norvegicus [2]
  Activity: inactive

## Cc1ccc(CCCC(C)c2cc(O)c3c(c2)OC(C)(C)C2=C3CC(C)CC2)cc1 (stereo not drawn)
Rattus norvegicus [3]
  inhibition in vivo at 0.5 mg/kg: 90%
Rattus norvegicus [14]
  Activity: 0%
Rattus norvegicus [4]
  Activity: 66%
Rattus norvegicus [15]
  Activity: 26%
[5]
  LD50: ≥ 1000 mg/kg
Mus musculus [10]
  Activity: 10%
Rattus norvegicus [16]
  Activity: 72%
Rattus norvegicus [17]
  Activity: 0%
Rattus norvegicus [18]
  Activity: 16%
Mus musculus [6]
  inhibition in vivo at 10 mg/kg: 30%
Rattus norvegicus [7]
  Activity: 16%

## CC1CCC2=C(C1)c1c(O)cc(C(C)C(C)Cc3ccc(F)cc3)cc1OC2(C)C (stereo not drawn)
Rattus norvegicus [14]
  Activity: 9%
Rattus norvegicus [15]
  Activity: 21%
[5]
  LD50: ≥ 1000 mg/kg
Rattus norvegicus [19]
  Activity: 28%
Mus musculus [10]
  Activity: 4%
Rattus norvegicus [16]
  Activity: 56%
Rattus norvegicus [17]
  Activity: 22%
Rattus norvegicus [18]
  Activity: 24%
Mus musculus [6]
  inhibition in vivo at 10 mg/kg: 38%
Rattus norvegicus [7]
  Activity: 66%

## CC(CCCCc1ccc(F)cc1)c1cc(O)c2c3c(c(=O)oc2c1)CCN(Cc1ccccc1)C3 (stereo not drawn)
Mus musculus [1]
  inhibition: inactive
Rattus norvegicus [2]
  Activity: inactive

## CC(CCCc1ccc(F)cc1)c1cc(O)c2c(c1)OC(C)(C)C1=C2CN(Cc2ccccc2)CC1 (stereo not drawn)
Mus musculus [1]
  inhibition: inactive
Rattus norvegicus [2]
  Activity: inactive

## CC1CCc2c(c3c(O)cc(C(C)C(C)CCc4ccncc4)cc3oc2=O)C1 (stereo not drawn)
Mus musculus [1]
  inhibition: inactive
Rattus norvegicus [2]
  Activity: inactive
